Experimental data as given in patent US20250367151A1, “ANTI-VWF THERAPEUTIC FOR PREVENTING ARTERIAL THROMBI” (GEORGIA TECH RESEARCH CORPORATION, priority 2022, published 2025).
Entries after “also recorded” stand apart in the source; their conditions may differ. Where two headings read alike, the source gives them in different places. Each block holds one compound with its values, some of them ahead of it.

How the values were obtained:
[1] = test system: tail bleeding in mice; details: mice treated with ASA, previously seen (Decouture et al. 2019); cited from earlier work
[2] = Olsson et al. 1988; cited from earlier work
[3] = test system: platelet aggregation in human whole blood; test: Brightfield platelet intensity (lag time, rapid platelet accumulation rate) in the microfluidic model; format: cell-based
Protocol: (§1) For each chip, the mass flow rate of each outlet channel and brightfield images of two stenotic regions were acquired. Mass flow rates for each channel were measured using four mass balances (Ohaus Scout) connected to the device outlets. Occlusion time was defined as the difference between the time blood enters the stenosis region of the microfluidic device and the time when the mass balances register their peak mass. A brightfield, upright microscope (Leica DM6000B) was used in conjunction with a CCD camera (Pixelfly, PCO) to image the stenotic regions of the middle two channels as the occlusive thrombus formed. Images were taken once per second with a 40× magnification. These images were later thresholded into black and white images to identify platelet rich thrombi from the background blood (ImageJ). Average platelet intensity is defined as the average B/W value of the stenosis region. A value of 0 represents a clean channel with no platelets and increasing values indicate platelet accumulation.
(§2) Occlusion times for each concentration were tested using an unpaired Student's t-test. For survival curves, each possible combinations of pairs of concentrations were tested using a log-rank test. Visual measurement of platelet intensities for each concentration were compared using a Mann-Whitney U test. Statistical significance was determined by p<0.05.
(§3) N-acetyl cysteine was added to blood to create final concentrations of 3 mM, 5 mM and 10 mM. For each human subject, a fresh solution of concentrated NAC (Sigma Aldrich) was created in PBS and neutralized to a pH of 7 with NaOH. The concentrated NAC solution was then diluted so that the same volume of NAC solutions was added to each sample. Negative control (OmM) samples were similarly diluted with 0.5 mL of PBS in 15 mL blood. In three individuals, additional experiments were performed at concentrations of 7.5 mM, 20 mM and 40 mM. For all experiments, NAC was allowed to incubate in the blood at room temperature on a shaker for 30 minutes prior to testing.
Brightfield measurements of platelet aggregation were used to establish whether the increase in occlusion time observed in 3 mM and 5 mM cases is primarily due to effects on initial platelet attachment (lag time) or the platelet accumulation rate (RPA). Lag time is defined as the time required for the average platelet intensity measurements to increase to 1% of their maximal value. Average lag times for 0 mM, 3 mM, 5 mM NAC experiments are 49 s, 65 s and 107 s, respectively. The small increases in lag time for 3 mM and 5 mM treatments cannot account for the 125-325 s increases in occlusion time seen in the 3 mM and 5 mM conditions. This is instead explained by a decrease in the rapid platelet accumulation rate, defined as the slope of the platelet intensity graph (FIG. 2B). […] The slope of the platelet intensity curve decreases as NAC concentration increases, with 10 mM NAC having a negligible slope. When the RPA rate for each individual is normalized to the individual's control RPA rate, the platelet aggregation rates for 3 mM, 5 mM and 10 mM are 0.66, 0.38 and −0.12, respectively (FIG. 2D, p<0.01 compared to control for all conditions). The small negative aggregation rate for 10 mM is an artifact caused by mixing of blood and PBS at the interface between the priming solution and the sample.

[4] = Elimination of NAC from mouse plasma (literature); format: in vivo; details: calculated from half-life of 34 minutes
[5] = Zhou et al. 2015; cited from earlier work
[6] = test system: occlusive thrombi in common carotid artery of C57 mice; test: Murine modified-Folts model of arterial thrombosis (carotid stenosis and crush injury); format: in vivo, mouse; details: 200 mg/kg NAC 6 hrs prior and immediately prior to crush injury
[7] = test system: occlusive thrombi in common carotid artery of C57 mice; test: as above; format: in vivo, mouse
Protocol: Formation of occlusive thrombi was measured using a murine Modified-Folts model (Kim D A, et al. Platelet α-granules are required for occlusive high-shear-rate thrombosis. Blood Adv. 2020;4:3258-3267). C57 mice were used under conditions approved by the university animal use and care committees. Following isolation of the common carotid artery, blood flow through the vessel was measured with a flow probe (Transonic Systems). A 6.0 silk suture was then tied around the vessel and tightened until the measured flow rate was approximately 50% of the initial value. This creates a stenosis region with high shear-rate at the apex. The artery is then crushed with forceps to damage the endothelial cells and expose collagen in the extracellular matrix.
In single injection experiments, 13 mice were treated with either 200 mg/kg NAC, 400 mg/kg NAC, or PBS. 100 μL of freshly prepared, neutralized NAC solution or vehicle was I.V. injected approximately 45 minutes prior to the crush injury.
For repeat injection experiments, mice were given either PBS, 200 mg/kg, or 400 mg/kg NAC through a 100 μL I.V. injection 6 hr prior to surgery. Mice were then given a second injection of PBS, 200 mg/kg, or 400 mg/kg NAC approximately 45 minutes prior to the crush injury. Additionally, 4 mice were given a dose of 400 mg/kg NAC through an 100 μL injection 6 hr prior to the surgery, followed by a second injection of PBS immediately prior to the crush injury.
Blood flow measurements were taken with a Transonic flow probe and acquired with Powerlab software (ADInstruments) (Id.). Time to initial occlusion is defined as the time between the crush injury and the first point where flow reaches approximately 0. After occlusion, if flow remains around 0 then the occlusion is characterized as stable. If instead the thrombus detaches and flow increases, the clot is labelled an unstable occlusion.
Statistical significance in time to initial occlusion was determined using unpaired student t-test (p <0.05). Differences in thrombus stability are determined using a Pearson's Chi-squared test (p <0.05).

[8] = test system: human whole blood; test: Occlusion time in a stenotic microfluidic model of arterial thrombosis; format: cell-based; details: for Average occlusion time: 30 min incubation, shear ~7,500 s-1, untreated 124 s; for Occlusion time, weak NAC responders: 0 mM 112 s; for Occlusion time, strong NAC responders: 0 mM 136 s
Source text: Microfluidic tests were run using a microfluidic system previously described (Griffin M T, et al. Inhibition of high shear arterial thrombosis by charged nanoparticles. Biomicrofluidics 2018;12). The chip contains a single inlet split into four outlet channels 475 μm wide and 250 μm tall. Within each outlet channel is a stenotic region 800 μm long where the height decreases to 70 μm. Flow is controlled using a hydraulic pressure head created by a raised reservoir connected to the inlet which generates an initial shear rate of ˜7,500 s-1 in the stenotic region. Channels are coated overnight with 100 μg/mL collagen Type I (Chrono-Log Corp) in 0.9% saline. Blood is filtered with a 37 μm nylon mesh immediately prior to testing to prevent debris from entering the chip.
as §1, §2
Blood was collected from 10 healthy adult volunteers. Subjects were recruited in accordance with Georgia Institute of Technology's Institutional Review Board Guidelines (IRB #17315). Subjects with known bleeding disorders, a history of anti-platelet medications within 10 days of donation, anemia or transmittable blood disease were excluded from the study. Standard phlebotomy techniques were used to obtain blood. Briefly, 60 mL of blood was drawn slowly through a 21 G needle into a 60 ml syringe containing 0.21 mL of a 1000 USP/mL solution of heparin sodium (Fisher Scientific) in PBS to achieve a heparin concentration of […] in the collected blood. Complete Blood Counts (CBCs) were also performed on all donor samples. All tests were run within 4 hours of the blood draw.
as §3
To test the effect of N-acetylcysteine on reducing arterial thrombosis in human blood, whole blood was perfused collected from 10 healthy human subjects through a stenotic microfluidic channel coated with type I collagen. A constant pressure head of 16 mmHg was formed using an elevated upstream reservoir to create shear rates of ˜7,500 s-1 in the stenotic region and ˜800 s-1 in the rest of the channel. […]

[9] = test system: tail bleeding in mice; test: Tail bleeding model; format: in vivo, mouse; details: 400 mg/kg NAC; PBS 2.35 minutes, p=0.14
Protocol: Bleeding times were assessed using the tail bleeding model described previously (Liu Y, Standardizing a simpler, more sensitive and accurate tail bleeding assay in mice. World J Exp Med. 2012;2:30). Briefly, mice were anesthetized and the distal 3 mm segment of the tail was transected and placed in a vial of warm saline. The injuries were monitored visually to determine the time it took for bleeding to cease.

[10] = test system: human whole blood; test: VWF recovery experiment in 10 mM NAC treated blood, microfluidic system; format: cell-based
Protocol: VWF recovery experiments were performed using 3 individual's 10 mM NAC samples prepped as detailed above. 19 IU/mL of VWF (Humate) was added to these samples and they were immediately perfused through the microfluidic system. Occlusion times and platelet intensities were measured as above.
To test if the NAC prevented arterial thrombosis by modifying VWF as hypothesized, new VWF was added to blood samples treated with 10 mM NAC. […] Although OTs of the recovery samples were higher than the control, the average RPA rates for the control and recovery conditions were similar. By shifting the control curve right, simulating a 76 s increase in lag time, the two curves show a high degree of concordance (FIG. 9).

[11] = two doses of 400 mg/kg NAC 6 hrs apart

Compound: CC(=O)Oc1ccccc1C(=O)O [ASA]
- Average bleeding time [1]: 5.72 min

- Plasma concentration at 6 hrs, of the initial concentration [4]: < 0.05%
- Average bleeding time [9]: 2.76 min
Compound: CC(=O)N[C@@H](CS)C(=O)O [NAC, N-acetylcysteine]
- Oral bioavailability [2]: 4-9%
- Platelet aggregation (RPA) rate normalized to the individual's control RPA rate ([3]; 3 mM NAC): 0.66
- Reduction of the maximum growth rate of thrombi ([3]; 3 mM NAC): 30%
- Average lag time (time to 1% of maximal platelet intensity) ([3]; 3 mM NAC, 0 mM 49 s): 65 s
- Platelet aggregation (RPA) rate normalized to the individual's control RPA rate ([3]; 5 mM NAC): 0.38
- Reduction of the maximum growth rate of thrombi ([3]; 5 mM NAC): 60%
- Average lag time (time to 1% of maximal platelet intensity) ([3]; 5 mM NAC, 0 mM 49 s): 107 s
- Visible platelet aggregation ([3]; 10 mM NAC, 1000 s of the experiment): no visible aggregation of platelets
- Lag time (time to 1% of maximal platelet intensity) ([3]; 10 mM NAC, 0 mM 49 s): 910 s
- Platelet aggregation (RPA) rate normalized to the individual's control RPA rate ([3]; 10 mM NAC, small negative value said to be an artifact): −0.12
- Visible platelet aggregation ([3]; 20 mM NAC): no visible platelet aggregation
- Visible platelet aggregation ([3]; 40 mM NAC): no visible platelet aggregation
- Visible platelet aggregation ([3]; NAC concentrations over 10 mM): no visible platelet aggregation
- Estimated elimination half-life in mouse plasma [5]: 34 min
- Mice that formed no thrombi and remained patent during the entire experiment [6]: Three of the 4
- Clot stability ([7]; 200 mg/kg NAC single injection): recanalized completely; also recorded: more likely to be unstable and recanalize
- Flow after recanalization, of the initial flow ([7]; 200 mg/kg NAC single injection): ~100%
- Clot stability ([7]; 400 mg/kg NAC 6 hrs prior to surgery, PBS immediately prior to crush injury): formed unstable thrombi
- Occlusion ([7]; 400 mg/kg NAC I.V. single injection, N=3, 45 minutes of the experiment): no occlusion was observed; also recorded: completely prevented occlusion
- Observations following administration ([7]; NAC I.V., single injection experiments): lower basal blood flow and initial labored breathing
- Clot stability [7, 11]: majority forming unstable thrombi
- Time to clotting [7, 11]: ≤ 10 min
- Tissue at crush injury site [7, 11]: more severe tissue damage and hemorrhage
- Average occlusion time ([8]; 3 mM NAC): 255 s
- Occlusion time, weak NAC responders ([8]; 3 mM NAC): 182 s
- Occlusion time, strong NAC responders ([8]; 3 mM NAC): 328 s
- Increase in occlusion time ([8]; 3 mM and 5 mM conditions vs control): 125 to 325 s
- Average occlusion time ([8]; 5 mM NAC): 458 s
- Occlusion time, weak NAC responders ([8]; 5 mM NAC): 220 s
- Occlusion time, strong NAC responders ([8]; 5 mM NAC): 695 s
- Samples not occluding within the time limit of the experiment ([8]; 7.5 mM NAC, 3 individuals, 1000 s window): ~64%
- Occlusion outcome ([8]; 7.5 mM NAC, 1000 s window): results were mixed
- Occlusion outcome ([8]; 20 mM NAC): did not occlude
- Occlusion outcome ([8]; 40 mM NAC): did not occlude
- Inflection point of 4-parameter logistic fit of occlusion time vs NAC dose ([8]; r^2 = 0.782): 5.6545 mM
- Logistic growth rate of 4-parameter logistic fit of occlusion time ([8]; r^2 = 0.782): 0.7145
- Lower asymptote of 4-parameter logistic fit of occlusion time ([8]; r^2 = 0.782): 118.5 s
- Upper asymptote of 4-parameter logistic fit of occlusion time ([8]; r^2 = 0.782): 1028.4 s

Compound: VWF: VWF (Humate) added at 19 IU/mL to 10 mM NAC treated blood
- Increase in lag time of recovery condition vs control (shift of control curve) ([10]; 10 mM NAC + 19 IU vWF): 76 s
- Occlusive thrombus formation after VWF addition ([10]; 19 IU/mL VWF added to blood treated with 10 mM NAC): recover the ability to form rapid occlusive thrombi; also recorded: forms occlusive thrombi
